Data set [1] has as its target T1, Histone-lysine N-methyltransferase NSD2 (Homo sapiens, UniProt O96028).
T1 sequence (O96028 whole entry): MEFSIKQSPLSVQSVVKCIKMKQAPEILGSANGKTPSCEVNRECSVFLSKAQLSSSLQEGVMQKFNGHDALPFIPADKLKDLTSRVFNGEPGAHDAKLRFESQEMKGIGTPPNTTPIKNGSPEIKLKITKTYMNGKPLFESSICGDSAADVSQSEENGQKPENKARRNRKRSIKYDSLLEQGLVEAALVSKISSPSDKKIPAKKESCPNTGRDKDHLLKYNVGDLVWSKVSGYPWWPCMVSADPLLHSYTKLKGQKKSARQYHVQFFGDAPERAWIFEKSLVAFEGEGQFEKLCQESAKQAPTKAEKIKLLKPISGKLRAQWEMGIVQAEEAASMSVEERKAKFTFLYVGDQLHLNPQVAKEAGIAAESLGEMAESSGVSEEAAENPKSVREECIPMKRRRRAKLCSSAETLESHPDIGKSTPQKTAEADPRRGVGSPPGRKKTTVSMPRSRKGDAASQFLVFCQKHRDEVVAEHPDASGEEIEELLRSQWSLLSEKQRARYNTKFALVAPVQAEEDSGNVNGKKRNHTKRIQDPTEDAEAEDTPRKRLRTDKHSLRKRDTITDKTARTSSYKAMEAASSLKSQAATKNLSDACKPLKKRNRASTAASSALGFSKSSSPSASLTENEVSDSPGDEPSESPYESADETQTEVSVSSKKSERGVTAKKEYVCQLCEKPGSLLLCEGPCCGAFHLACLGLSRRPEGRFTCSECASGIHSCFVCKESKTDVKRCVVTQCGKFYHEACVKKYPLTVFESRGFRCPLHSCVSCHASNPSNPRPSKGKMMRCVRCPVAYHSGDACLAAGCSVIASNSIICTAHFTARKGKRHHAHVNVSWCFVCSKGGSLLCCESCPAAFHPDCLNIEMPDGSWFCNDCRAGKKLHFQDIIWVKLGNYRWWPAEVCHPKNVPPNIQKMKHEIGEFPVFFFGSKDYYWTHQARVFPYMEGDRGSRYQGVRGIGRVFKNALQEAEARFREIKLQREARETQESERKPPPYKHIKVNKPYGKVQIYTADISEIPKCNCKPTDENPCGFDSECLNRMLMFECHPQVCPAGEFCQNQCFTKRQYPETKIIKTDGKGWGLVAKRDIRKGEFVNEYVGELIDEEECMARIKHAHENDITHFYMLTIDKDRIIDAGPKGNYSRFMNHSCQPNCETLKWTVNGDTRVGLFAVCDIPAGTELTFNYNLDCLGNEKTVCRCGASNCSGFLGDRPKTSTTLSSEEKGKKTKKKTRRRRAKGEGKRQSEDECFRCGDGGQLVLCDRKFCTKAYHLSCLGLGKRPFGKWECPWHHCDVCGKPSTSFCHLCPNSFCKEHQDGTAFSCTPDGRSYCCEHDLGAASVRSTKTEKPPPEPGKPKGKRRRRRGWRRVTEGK
Description: Inhibition of recombinant human NSD2 (941 to 1240 residues) using SAM as substrate incubated for 3 hrs by AlphaLISA assay. In general terms: In Alpha technology, singlet oxygen from a donor bead excites a nearby acceptor bead.

Data set [2] in a line: Tmax in ICR mouse at 3 mg/kg, po measured for 24 hrs by LC-MS/MS analysis. It is filed as ADME, organism-based. The conditions noted are these: in vivo.
Data set [3] in a line: Cmax in ICR mouse at 3 mg/kg, po measured for 24 hrs by LC-MS/MS analysis. It is filed as ADME, organism-based. Further details: dose 3 mg/kg, time 24 hrs, route po. The settings on record: in vivo.
In data set [4] the target is T1, Histone-lysine N-methyltransferase NSD2. Description: Inhibition of N-terminal polyhistidine tagged human recombinant NSD2 SET domain (934 to 1241 residues) expressed in Escherichia coli using SAM as substrate preincubated for 30 mins followed by substrate addition and measured after 15 mins by MTase-Glo assay.
Another data set has as its system KMS-11. In words: Antiproliferative activity against human KMS-11 cells assessed as inhibition of cell growth incubated for 6 days by CCK-8 assay. It is filed as functional, cell-based. The conditions noted are these: KMS-11, 144 h.
For data set [5], the target named is Histone-lysine N-methyltransferase NSD3 (Homo sapiens, UniProt Q9BZ95). In words: Inhibition of NSD3 (unknown origin).
Sequence of Histone-lysine N-methyltransferase NSD3 (Q9BZ95 whole entry): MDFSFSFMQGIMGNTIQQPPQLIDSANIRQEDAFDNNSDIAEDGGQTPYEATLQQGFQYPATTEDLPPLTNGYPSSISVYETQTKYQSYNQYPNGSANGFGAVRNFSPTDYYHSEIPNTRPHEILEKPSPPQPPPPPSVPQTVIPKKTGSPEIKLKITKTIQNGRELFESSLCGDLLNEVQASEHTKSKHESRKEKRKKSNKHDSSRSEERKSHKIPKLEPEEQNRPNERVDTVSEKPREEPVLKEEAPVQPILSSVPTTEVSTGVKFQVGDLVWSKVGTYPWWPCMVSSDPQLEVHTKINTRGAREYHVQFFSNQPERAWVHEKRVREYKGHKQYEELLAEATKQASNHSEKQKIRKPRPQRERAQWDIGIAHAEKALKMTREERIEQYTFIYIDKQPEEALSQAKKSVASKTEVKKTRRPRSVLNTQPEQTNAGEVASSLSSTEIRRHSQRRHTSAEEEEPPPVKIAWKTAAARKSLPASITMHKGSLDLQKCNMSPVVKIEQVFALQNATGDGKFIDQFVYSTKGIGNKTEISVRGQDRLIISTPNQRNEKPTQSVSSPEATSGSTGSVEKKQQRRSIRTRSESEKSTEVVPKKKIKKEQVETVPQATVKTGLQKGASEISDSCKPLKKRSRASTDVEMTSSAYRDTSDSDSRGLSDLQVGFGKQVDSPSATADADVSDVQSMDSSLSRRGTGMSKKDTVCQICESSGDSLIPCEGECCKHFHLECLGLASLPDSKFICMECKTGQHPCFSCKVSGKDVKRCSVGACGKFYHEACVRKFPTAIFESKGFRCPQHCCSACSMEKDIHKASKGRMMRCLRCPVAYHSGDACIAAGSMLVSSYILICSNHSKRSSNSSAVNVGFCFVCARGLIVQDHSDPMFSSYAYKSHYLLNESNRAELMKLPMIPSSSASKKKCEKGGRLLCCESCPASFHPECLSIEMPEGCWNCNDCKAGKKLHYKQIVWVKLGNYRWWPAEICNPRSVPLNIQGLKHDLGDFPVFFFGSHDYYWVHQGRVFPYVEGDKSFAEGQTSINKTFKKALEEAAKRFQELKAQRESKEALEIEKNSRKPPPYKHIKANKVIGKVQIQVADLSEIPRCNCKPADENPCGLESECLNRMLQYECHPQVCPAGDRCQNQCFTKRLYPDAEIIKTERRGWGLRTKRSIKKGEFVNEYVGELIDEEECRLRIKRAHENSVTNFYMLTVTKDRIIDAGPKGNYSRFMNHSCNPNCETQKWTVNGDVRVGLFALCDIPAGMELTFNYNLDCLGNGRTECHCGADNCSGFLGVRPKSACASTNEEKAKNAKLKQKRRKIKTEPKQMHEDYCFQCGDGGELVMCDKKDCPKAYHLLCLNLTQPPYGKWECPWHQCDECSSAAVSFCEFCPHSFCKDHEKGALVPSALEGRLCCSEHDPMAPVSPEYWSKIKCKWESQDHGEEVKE
Data set [6] is described as follows: Apparent permeability coefficient, Papp in MDCK cells. The conditions noted are these: dog. It is filed as ADME, cell-based, Canis lupus familiaris.
The nature of data set [7]: Half life in ICR mouse at 3 mg/kg, po measured for 24 hrs by LC-MS/MS analysis. It is filed as ADME, organism-based. The conditions noted are these: in vivo.
The target in data set [8] is Histone-lysine N-methyltransferase, H3 lysine-36 specific (Homo sapiens, UniProt Q96L73). In words: Inhibition of NSD1 (unknown origin).
Sequence of Histone-lysine N-methyltransferase, H3 lysine-36 specific (Q96L73 whole entry): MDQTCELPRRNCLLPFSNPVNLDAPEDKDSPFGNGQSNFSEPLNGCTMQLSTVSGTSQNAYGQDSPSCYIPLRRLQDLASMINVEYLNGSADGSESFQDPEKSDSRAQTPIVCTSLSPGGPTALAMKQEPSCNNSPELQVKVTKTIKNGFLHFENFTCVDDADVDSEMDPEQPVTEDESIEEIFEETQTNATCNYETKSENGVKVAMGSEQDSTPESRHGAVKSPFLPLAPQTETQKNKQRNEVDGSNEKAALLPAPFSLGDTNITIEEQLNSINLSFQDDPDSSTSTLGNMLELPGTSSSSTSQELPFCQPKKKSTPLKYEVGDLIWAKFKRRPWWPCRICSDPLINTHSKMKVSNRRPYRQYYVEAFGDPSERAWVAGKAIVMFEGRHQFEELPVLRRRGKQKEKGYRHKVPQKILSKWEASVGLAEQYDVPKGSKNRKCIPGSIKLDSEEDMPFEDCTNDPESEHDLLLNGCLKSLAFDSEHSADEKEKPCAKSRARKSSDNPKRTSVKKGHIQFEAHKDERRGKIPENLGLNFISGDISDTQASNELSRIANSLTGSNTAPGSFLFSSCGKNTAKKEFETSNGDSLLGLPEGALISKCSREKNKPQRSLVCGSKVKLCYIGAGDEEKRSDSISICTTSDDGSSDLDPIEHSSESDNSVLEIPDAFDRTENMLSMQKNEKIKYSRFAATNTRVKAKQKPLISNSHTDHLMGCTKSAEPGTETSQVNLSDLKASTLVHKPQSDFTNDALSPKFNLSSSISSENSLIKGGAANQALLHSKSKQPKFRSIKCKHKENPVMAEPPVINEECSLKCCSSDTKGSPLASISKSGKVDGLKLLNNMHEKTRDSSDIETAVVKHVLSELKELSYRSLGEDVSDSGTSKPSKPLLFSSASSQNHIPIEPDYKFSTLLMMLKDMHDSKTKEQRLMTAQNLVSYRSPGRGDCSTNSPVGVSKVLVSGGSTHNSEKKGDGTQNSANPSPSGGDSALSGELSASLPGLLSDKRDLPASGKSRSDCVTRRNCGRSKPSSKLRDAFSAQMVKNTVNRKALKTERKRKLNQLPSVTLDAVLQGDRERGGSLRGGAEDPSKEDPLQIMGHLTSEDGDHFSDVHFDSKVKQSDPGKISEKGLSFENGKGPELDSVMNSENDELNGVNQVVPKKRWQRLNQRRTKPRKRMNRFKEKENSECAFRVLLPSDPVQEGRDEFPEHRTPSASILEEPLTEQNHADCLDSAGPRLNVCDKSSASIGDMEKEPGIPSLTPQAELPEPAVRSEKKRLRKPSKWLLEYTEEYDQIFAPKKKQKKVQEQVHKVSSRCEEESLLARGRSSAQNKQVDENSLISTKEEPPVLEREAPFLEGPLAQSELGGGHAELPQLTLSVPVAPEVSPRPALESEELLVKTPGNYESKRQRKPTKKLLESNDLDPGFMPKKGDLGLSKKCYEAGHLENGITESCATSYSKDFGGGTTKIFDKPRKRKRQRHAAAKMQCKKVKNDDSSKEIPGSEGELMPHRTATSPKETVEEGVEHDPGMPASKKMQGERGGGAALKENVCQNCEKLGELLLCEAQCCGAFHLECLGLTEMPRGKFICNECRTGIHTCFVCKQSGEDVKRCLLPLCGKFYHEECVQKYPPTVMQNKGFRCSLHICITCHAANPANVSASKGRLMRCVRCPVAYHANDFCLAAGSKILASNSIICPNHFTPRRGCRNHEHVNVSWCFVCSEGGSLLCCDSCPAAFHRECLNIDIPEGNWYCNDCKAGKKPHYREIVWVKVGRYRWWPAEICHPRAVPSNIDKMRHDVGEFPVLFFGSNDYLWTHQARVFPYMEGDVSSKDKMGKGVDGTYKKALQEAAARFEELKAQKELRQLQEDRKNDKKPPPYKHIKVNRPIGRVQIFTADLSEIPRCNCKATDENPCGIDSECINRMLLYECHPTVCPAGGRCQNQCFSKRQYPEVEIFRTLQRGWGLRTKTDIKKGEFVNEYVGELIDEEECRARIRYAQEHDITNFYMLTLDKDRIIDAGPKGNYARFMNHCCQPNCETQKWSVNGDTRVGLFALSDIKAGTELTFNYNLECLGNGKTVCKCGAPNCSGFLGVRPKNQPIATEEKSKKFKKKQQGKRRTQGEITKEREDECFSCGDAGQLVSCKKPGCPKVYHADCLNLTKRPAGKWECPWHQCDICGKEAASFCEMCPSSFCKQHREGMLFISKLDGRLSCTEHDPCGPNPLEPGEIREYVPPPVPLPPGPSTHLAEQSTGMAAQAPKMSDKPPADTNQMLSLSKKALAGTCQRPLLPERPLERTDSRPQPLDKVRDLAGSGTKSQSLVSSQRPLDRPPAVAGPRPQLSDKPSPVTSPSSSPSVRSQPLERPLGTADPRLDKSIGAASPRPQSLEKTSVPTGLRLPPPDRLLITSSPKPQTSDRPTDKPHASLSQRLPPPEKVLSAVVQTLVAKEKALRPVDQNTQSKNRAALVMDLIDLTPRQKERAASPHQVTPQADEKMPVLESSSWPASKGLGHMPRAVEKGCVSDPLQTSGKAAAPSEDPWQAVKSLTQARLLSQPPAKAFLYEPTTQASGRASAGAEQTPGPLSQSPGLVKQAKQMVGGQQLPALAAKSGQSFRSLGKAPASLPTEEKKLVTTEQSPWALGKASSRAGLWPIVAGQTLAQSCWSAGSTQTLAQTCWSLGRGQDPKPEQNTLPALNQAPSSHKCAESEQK
The nature of data set [9]: AUClast in ICR mouse at 3 mg/kg, po measured for 24 hrs by LC-MS/MS analysis. It is filed as ADME, organism-based. Further details: dose 3 mg/kg, time 24 hrs, route po. The conditions noted are these: in vivo.
Data set [10] deals with T1, Histone-lysine N-methyltransferase NSD2. In words: Inhibition of human NSD2 SET domain (948 to 1239 residues)-mediated mono-methylation activity assessed as reduction in H3K36me1 level incubated for 1 hr.
For data set [11] the target is unchanged. Description: Inhibition of human MMSET (973 to 1203 residues) expressed in Escherichia coli BL21 (DE3) using S-adenosyl-methionine as substrate incubated for 60 mins by AlphaScreen assay.
The target is the same in data set [12]. Description: Inhibition of human NSD2 (934 to 1241 residues) expressed in Escherichia coli BL21 (DE3) using [3H]-SAM as substrate incubated for 1 hr by TopCount radioactivity counter.

Each structure is given as a SMILES string.

`CC#CC(=O)NCCC1CCN(C2=C(Cl)C(=O)c3ncccc3C2=O)CC1`: in data set [1], the IC50 (as a rule, the point on the concentration scale where inhibition reaches its midpoint) stood at 490 nM.

Turning to `O=C1C(Cl)=C(NCCN2CCOCC2)C(=O)c2ncccc21`, in data set [2], the Tmax (commonly the time at which the peak concentration occurs) came to 19.8 min. The concentration in data set [3] peaked (Cmax) at 21.1 ng/mL. The IC50 in data set [1] came out at 230 nM; in data set [4] it was 170 nM; in the data set on KMS-11, 1430 nM; in [5], 340 nM; in data set [8] it was 150 nM. In addition, in [6], the Papp (in general, the rate of passage across a membrane or cell layer, normalised by area and donor concentration) was determined as 31.2 ×10⁻⁶ cm/s. Further, the half-life – broadly, the time in which the quantity being followed falls by half – in data set [7] is 34.2 min. For the same compound, the AUC(0-t) (commonly the area under the concentration-time curve up to a stated or last time point) at 24 h in data set [9] is 14.5 ng·h/mL.

Regarding `CC(F)(F)C(=O)NCCC1CN(C2=C(Cl)C(=O)c3cccnc3C2=O)C1`, the IC50 in data set [1] is 380 nM.

On to `O=C1C(Cl)=C(NC2CCc3ccccc32)C(=O)c2ncccc21` (stereo not given), for which the IC50 in [1] is 210 nM; with KMS-11 it was 2520 nM. Further, the Papp in [6] turned out to be 28.8 ×10⁻⁶ cm/s.

Regarding `C[C@@](O)(C(=O)NC12CC(NC3=C(Cl)C(=O)c4cccnc4C3=O)(C1)C2)C(F)(F)F`, the 50% inhibitory concentration (IC50) in data set [1] was 420 nM.

For `CC(F)(F)C(=O)N1CCC2(CC1)CN(C1=C(Cl)C(=O)c3cccnc3C1=O)C2`, in data set [1], the IC50 is 330 nM.

As for `CC(F)(F)C(=O)NCCC1CN(C2=C(Cl)C(=O)c3ncccc3C2=O)C1`, the half-maximal inhibitory concentration (IC50) in data set [1] was 380 nM.

Take `CCN(c1cc(-c2ccc(CN3CCOCC3)cc2)cc(C(=O)NCc2c(C)cc(C)[nH]c2=O)c1C)C1CCOCC1` [TAZEMETOSTAT]: the IC50 in the data set with KMS-11 is more than 20000 nM.

As to `CC(F)(F)C(=O)NC1CN(C2=C(Cl)C(=O)c3ncccc3C2=O)C1`, in data set [1], the IC50 came out at 360 nM.

As to `O=C1C(Cl)=C(NCCc2c[nH]c3ccccc23)C(=O)c2ncccc21`, the IC50 in [1] came to 450 nM.

For `CC(F)(F)C(=O)NC1CN(C2=C(Cl)C(=O)c3cccnc3C2=O)C1`, the IC50 in [1] came out at 470 nM.

With `CC(F)(F)C(=O)NCCC1CCN(C2=C(Cl)C(=O)c3cccnc3C2=O)CC1`, in data set [1], the IC50 turned out to be 2340 nM.

Consider `COc1cc2nc(N3CCCN(C)CC3)nc(NC3CCN(Cc4ccccc4)CC3)c2cc1OC`, for which, in [10], the IC50 stood at 41000 nM.

As to `CC#CC(=O)NCCC1CCN(C2=C(Cl)C(=O)c3cccnc3C2=O)CC1`, the IC50 in data set [1] turned out to be 1710 nM.

As to `O=C1C(NCCN2CCOCC2)=C(Cl)C(=O)c2ncccc21`, in data set [1], the IC50 worked out at 490 nM.

As to `O=C1C(NC2CCc3ccccc32)=C(Cl)C(=O)c2ncccc21` (stereo not given), the IC50 in [1] came to 450 nM.

Take `O=C1C(Cl)=C(NCCC2(O)CCN(C(=O)C3CC3(F)F)CC2)C(=O)c2ncccc21` (stereo not given): the results for the IC50 (in [1]; with KMS-11) were 200 nM and 3940 nM, respectively. Also, the Papp in [6] amounted to 21.5 ×10⁻⁶ cm/s.

On to `CC(C)(O)[C@H](F)CNC1=C(Cl)C(=O)c2ncccc2C1=O`, for which, in data set [1], the IC50 worked out at 1310 nM.

Regarding `CC(C)(O)[C@H](F)CNC1=C(Cl)C(=O)c2ccc(N3CC(O)C3)nc2C1=O`, the IC50 in data set [1] is more than 10000 nM.

In turn, `CCCN[C@@H](CC[C@H](N)C(=O)O)C[C@H]1O[C@@H](n2cnc3c(N)ncnc32)[C@H](O)[C@@H]1O` gave an IC50 in data set [11] of 3300 nM.

Regarding `Nc1ncnc2c1ncn2[C@@H]1O[C@H](C[C@@H](N)CC[C@H](N)C(=O)O)[C@@H](O)[C@H]1O` [SINEFUNGIN], in data set [12], the IC50 was found to be 79000 nM.

Take `CC#CC(=O)N1CCC2(CC1)CN(C1=C(Cl)C(=O)c3ncccc3C1=O)C2`: the IC50 in data set [1] was 2480 nM.
